Assay results: patent publication US9315545B2, “Hepcidin mimetic peptides and uses thereof” (MERGANSER BIOTECH, INC., priority 2014, dated 2016)
In brackets after ≈: the same amount, converted by molar mass. Entries after “also recorded” stand apart in the source; their conditions may differ.

How the values were obtained:
serum iron = assay: Serum iron reduction after subcutaneous administration in the rat (hepcidin mimetic activity); type: in vivo; details: 7.5 mg/kg
Protocol: (§1) Compounds 1-4 were tested in rats to determine compound pharmacokinetics and hepcidin mimetic activity in vivo as measured by serum iron reduction. The effectiveness of the compounds for serum iron reduction should correlate with the treatment of iron metabolism disorders. Individual compounds, in this example and the following examples were generally formulated in DSPE-PEG(2000) (SUNBRIGHT® DSPE-020CN, NOF America Corporation) (30 mg/mL) and dosed subcutaneously at a compound dose of 7.5 mg/kg.
(§2) The compound was prepared according to the following typical preparation. The dosing solution was prepared (7.5 mg compound/mL in clear solution) by weighing the compound into vial and an aliquot of ethanol is added into the vial and mixture vortexed. DSPE-020CN was added and the solution was vortexed, and, if necessary, the mixture was heated at 37° C. for 10-15 minutes to fully dissolve the DSPE-020CN. The ethanol was evaporated with nitrogen gas stream for 1-3 hours. Sterile water was then added and the mixture was vortexed or, if necessary, sonicated to give a clear solution.
Serum iron was measured during the 24 h following subcutaneous administration in a rat of Compounds 1-4 and is summarized in FIG. 1. […] The observed effects on serum iron were unexpectedly similar in Compounds 1-3 despite the differences at Cysteine 7 and the differences in blood levels of the compounds (Table 7).

[1] = type: physicochemical
Protocol: Compound 5, which has the same disulphide block of the reactive cysteine as Compound 2 was also evaluated in stability studies over a 4 week period in 50 mM Na Acetate pH 5 at different temperatures.

[2] = In vitro stability of compounds in rat plasma (37° C.); type: in vitro ADME
Protocol: The in vitro stability of Compounds 1-4 in rat plasma at 37° C. was examined to give an indication of stability in a whole animal model (Table 6).

[3] = type: physicochemical; remark: listed apart in the source
Protocol: An additional critical aspect in drug delivery is retention of solubility with time (physical stability), especially under refrigerated conditions. […] Unexpectedly, clear differences in physical stability were observed between Compound 5 and other compounds with only minor changes in sequence (e.g. Compounds 7 and 8). The combination of unexpected solubility of greater than 100 mg/mL in mildly acidic conditions and lack of significant changes in solution character after refrigeration, are unexpected and advantageous for a pharmaceutical product.

[4] = Compound blood levels after subcutaneous administration in the rat (LC/MS); type: in vivo; details: 7.5 mg/kg
Protocol: as §1, §2
After subcutaneous injection compound quantities in blood were measured over the subsequent 24 hours via LC/MS.

physchem = type: physicochemical
Protocol: Different solvent compositions with different properties that are commonly used as a basis for pharmaceutical compositions were added to known quantities of the indicated compound and mixed. If a clear solution was not obtained, additional solvent was added and the solution mixed. […] For example “50-100” would indicate that the compound was not soluble at 100 mg/mL but upon additional solvent to have a final concentration of 50 mg/mL, the compound was soluble.

[5] = type: physicochemical; details: HCl (0.01%), 40° C.
[6] = Stability in sodium acetate buffer pH 6 at two temperatures, reversed-phase HPLC; type: physicochemical
Protocol: Three other compounds were also tested, Compound 2, Compound 3, and Compound 4. Compounds 2, 3, and 4 are modifications of Compound 1 at the sidechain of Cysteine 7. Compound 2 has a disulfide bond attached to Cysteine 7, Compound 3 has thioester bond attached to Cysteine 7, and Compound 4 has an ethyl group attached to the sidechain sulfur of Cysteine 7. The peptides were incubated in sodium acetate buffer pH 6 at two temperature conditions and then analyzed via reversed-phase HPLC. The chromatography performed was with an Ascentis Phenyl 2.7 micron column (4.6×150 mm). The binary gradient (1 ml/min) was 36% to 56% B in 40 minutes followed by an increase to 65% B in 5 minutes where A=0.1% trifluoroacetic acid in water and B=0.1% trifluoroacetic acid in acetonitrile.

[7] = Stability of Compound 1 pH 6 formulations at 40° C. with antioxidants (HPLC % AUC); type: physicochemical
Protocol: Initially the stability of Compound 1 was previously characterized and there was significant degradation observed by HPLC after about 24 hours at 40° C. […] The effect of various antioxidants and thiol scavengers that might be used in a medicament were studied.

CCCCCCCCCCCCCCCCNC(=O)CN(CC(N)=O)C(=O)CCCCCNC(=O)C(Cc1c[nH]c2ccccc12)NC(=O)C(CCCNC(=N)N)NC(=O)C(CSSC)NC(=O)C(CCCNC(=N)N)NC(=O)C1CCCN(C(=O)C(NC(=O)C(Cc2c[nH]cn2)NC(=O)C(NC(=O)CNCC(=O)O)C(C)O)C(c2ccccc2)c2ccccc2)C1 (stereo not shown) [Compound 5]
duration of serum iron reduction compared with Compound 2 (serum iron): longer effect | reduction in serum iron (in words) (serum iron): retained significant hepcidin activity; also recorded: comparable activity | % Purity, Week 0, 2-8° C. ([1]; 50 mM NaAcetate pH 5, week 0, 2-8° C.): 96.9% | % Purity, Week 0, 25° C. ([1]; 50 mM NaAcetate pH 5, week 0, 25° C.): 96.9% | % Purity, Week 1, 2-8° C. ([1]; 50 mM NaAcetate pH 5, week 1, 2-8° C.): 96.8% | % Purity, Week 1, 25° C. ([1]; 50 mM NaAcetate pH 5, week 1, 25° C.): 96.8% | % Purity, Week 2, 2-8° C. ([1]; 50 mM NaAcetate pH 5, week 2, 2-8° C.): 96.8% | % Purity, Week 2, 25° C. ([1]; 50 mM NaAcetate pH 5, week 2, 25° C.): 96.3% | % Purity, Week 4, 2-8° C. ([1]; 50 mM NaAcetate pH 5, week 4, 2-8° C.): 96.7% | % Purity, Week 4, 25° C. ([1]; 50 mM NaAcetate pH 5, week 4, 25° C.): 96.1% | in vitro plasma stability, comparison in words [2]: even greater than that for Compound 2 | physical stability under refrigerated conditions (in words) [3]: no changes in solution solubility or solution characteristics | blood levels of the dosed compound (in words) ([4]; in vivo, sc): surprisingly higher blood levels relative to the other compounds | solubility characteristics compared to the other compounds (in words) (physchem): unexpectedly superior solubility characteristics | solubility (physchem; Solubility (mg/mL) at Ambient Temperature, 30% PEG 400): 50 to 100 mg/mL (≈ 27.7 to 55.4 mM) | solubility (physchem; Solubility (mg/mL) at Ambient Temperature, 50% EtOH/water): > 100 mg/mL | solubility (physchem; Solubility (mg/mL) at Ambient Temperature, Water): > 100 mg/mL | solubility (physchem; pH 2.3, Solubility (mg/mL) at Ambient Temperature, 10% Tween 80 pH 2.3-2.8): > 200 mg/mL | solubility (physchem; pH 2.7, Solubility (mg/mL) at Ambient Temperature, 50% propylene glycol, pH 2.7): 50 to 100 mg/mL (≈ 27.7 to 55.4 mM) | change of solubility with pH (in words) (physchem; pH 4): no such significant change in solubility with pH | solubility (physchem; pH 4.5, Solubility (mg/mL) at Ambient Temperature, 10% Tween 80 pH 4.5-5.0): > 100 mg/mL | solubility (physchem; pH 5, Solubility (mg/mL) at Ambient Temperature, 2% Tween 80 pH 5): > 100 mg/mL | solubility (physchem; pH 5.5, Solubility (mg/mL) at Ambient Temperature, 10% Tween 80 pH 5.5-6.0): > 100 mg/mL | solubility (physchem; pH 6.4, Solubility (mg/mL) at Ambient Temperature, 2% Tween pH 6.4): > 44 mg/mL | solubility (physchem; solubility in mildly acidic conditions): > 100 mg/mL | % Purity, Day 0 ([5]; day 0): 97.1% | % Purity, Day 7 ([5]; day 7): 96.8%

CCCCCCCCCCCCCCCCNC(=O)CN(CC(N)=O)C(=O)CCCCCNC(=O)C(Cc1c[nH]c2ccccc12)NC(=O)C(CCCNC(=N)N)NC(=O)C(CS)NC(=O)C(CCCNC(=N)N)NC(=O)CC1CCCN1C(=O)C(NC(=O)C(Cc1c[nH]cn1)NC(=O)C(NC(=O)CNCC(=O)O)C(C)O)C(c1ccccc1)c1ccccc1 (stereo not shown) [Compound 1, reference compound]
significant degradation peaks observed by HPLC [6]: a single major peak | degradation after 18 hours at 40° C. (in words) ([6]; 18 hours, 40° C.): almost completely degraded | % Purity of the Compound, 6 Hours 25° C. ([6]; sodium acetate buffer pH 6, 6 hours, 25° C.): 58.9% | % Purity of the Compound, 6 Hours 40° C. ([6]; sodium acetate buffer pH 6, 6 hours, 40° C.): 11.9% | Change in Main Peak % Area After 18 H Incubation, 40° C. ([6]; sodium acetate buffer pH 6, 18 h, 40° C.): −95-100% | % Purity of the Compound, 18 Hours 40° C. ([6]; sodium acetate buffer pH 6, 18 hours, 40° C.): <5% | % Purity of the Compound, Initial ([6]; sodium acetate buffer pH 6, initial): 96.9% | reduction in serum iron (in words) (serum iron): significant drop in serum iron level | In vitro plasma stability (Ratio of compound/benfluorex (std) degradation) ([2]; rat plasma, 37° C.): 0.41 | half-life ([2]; rat plasma, 37° C., read-out: In vitro plasma stability (T ½)): 23 min | AUC(0-t) ([4]; sc, subcutaneous, blood, dosed compound itself, read-out: AUC(0-24) (hr*ng/mL, mean ± SD)): 2750 ng·h/mL | blood levels of the dosed compound (in words) ([4]; subcutaneous): remains little changed out to at least 24 hours | main peak (% AUC) lost ([7]; after about 24 hours at 40° C., no antioxidant): 90% | Difference (%) (T24 − T0) ([7]; pH 6 formulation, antioxidant 10 mM or none, 40° C.): −90% | Main peak % AUC, T0 ([7]; pH 6 formulation, antioxidant 10 mM or none, 40° C., T0): 94.4 % AUC | Main peak % AUC, T ~24 hours ([7]; pH 6 formulation, antioxidant 10 mM or none, 40° C., ~24 hours): ~4.0 (estimated) % AUC
